Data as given in publication PMC9837035 (Nature Communications, 2023).
“And” between values parts separate entries of the source, which are not always exact repeats. Identical values can stand only once. Like-named read-outs stand apart in the source and are kept apart here.

Assays:
[1] = tested on: BGLT3 RNA in HUDEP-2 cells; test: RT-qPCR of BGLT3 in HUDEP-2 cells; assay type: cell-based, human
Procedure, shortened: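 Total RNA reverse-transcribed to cDNA, then target transcripts quantified by SYBR Green real-time qPCR. Expression normalized to GAPDH as reference gene.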

[2] = tested on: BCL11A and ZBTB7A in HUDEP-2 cells; test: RT-qPCR of BCL11A and ZBTB7A in HUDEP-2 cells; assay type: cell-based, human; details: for expression of BCL11A and ZBTB7A: HUDEP-2
Procedure: Total cellular RNA was prepared using the Tissue Total RNA Mini Kit (FAVORGEN), and cDNA was synthesized using ReverTra Ace Master Mix (TOYOBO). Expression of target genes was analyzed using THUNDERBIRD SYBR qPCR Mix (TOYOBO) on a CFX Connect Real Time System (Bio-Rad). The qPCR data were acquired on CFX Maestro (Bio-Rad). Primers are listed in Supplementary Table 10. GAPDH was used as a reference. Primers were purchased from INTEGRATED DNA TECHNOLOGIES or FASMAC.

[3] = target: T1, DNMT3a (Homo sapiens, UniProt Q9Y6K1); test: Radioisotope-based methyltransferase assay (selectivity); assay type: biochemical
T1 construct: purchased Reaction Biology
T1 sequence (Q9Y6K1 whole entry, looked up): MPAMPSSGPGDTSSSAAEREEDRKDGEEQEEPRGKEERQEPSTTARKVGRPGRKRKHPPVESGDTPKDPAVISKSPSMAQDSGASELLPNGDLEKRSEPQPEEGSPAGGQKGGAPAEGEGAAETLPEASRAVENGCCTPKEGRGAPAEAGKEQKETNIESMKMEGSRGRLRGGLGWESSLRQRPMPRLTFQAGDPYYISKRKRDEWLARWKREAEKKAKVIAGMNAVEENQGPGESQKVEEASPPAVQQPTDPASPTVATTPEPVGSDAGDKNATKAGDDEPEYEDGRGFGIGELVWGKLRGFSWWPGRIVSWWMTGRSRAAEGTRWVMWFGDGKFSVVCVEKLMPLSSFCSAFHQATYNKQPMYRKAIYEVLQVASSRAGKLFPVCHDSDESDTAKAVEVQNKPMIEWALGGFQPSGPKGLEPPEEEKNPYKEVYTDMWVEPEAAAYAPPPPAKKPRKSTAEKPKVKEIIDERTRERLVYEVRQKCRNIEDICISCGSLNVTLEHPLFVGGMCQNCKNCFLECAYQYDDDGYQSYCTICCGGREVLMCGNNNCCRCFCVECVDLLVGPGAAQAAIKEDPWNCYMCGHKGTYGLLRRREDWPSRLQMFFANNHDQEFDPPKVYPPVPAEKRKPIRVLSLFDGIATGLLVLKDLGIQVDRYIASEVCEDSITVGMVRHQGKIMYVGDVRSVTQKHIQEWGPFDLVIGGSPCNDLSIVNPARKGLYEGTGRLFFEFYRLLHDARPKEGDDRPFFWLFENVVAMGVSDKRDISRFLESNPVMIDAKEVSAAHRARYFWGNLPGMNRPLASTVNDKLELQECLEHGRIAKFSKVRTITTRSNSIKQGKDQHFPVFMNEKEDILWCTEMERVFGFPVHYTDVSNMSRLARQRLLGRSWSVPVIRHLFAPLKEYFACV

[4] = target: T2, MLL1 (Homo sapiens, UniProt Q03164); test: as above; assay type: biochemical
T2 construct: purchased Reaction Biology

[5] = target: T3, SET1b (Homo sapiens, UniProt Q9UPS6); test: as above; assay type: biochemical
T3 construct: purchased Reaction Biology

[6] = target: T4, SET7/9 (Homo sapiens, UniProt Q8WTS6); test: as above; assay type: biochemical
T4 construct: purchased Reaction Biology
T4 sequence (Q8WTS6 1-366): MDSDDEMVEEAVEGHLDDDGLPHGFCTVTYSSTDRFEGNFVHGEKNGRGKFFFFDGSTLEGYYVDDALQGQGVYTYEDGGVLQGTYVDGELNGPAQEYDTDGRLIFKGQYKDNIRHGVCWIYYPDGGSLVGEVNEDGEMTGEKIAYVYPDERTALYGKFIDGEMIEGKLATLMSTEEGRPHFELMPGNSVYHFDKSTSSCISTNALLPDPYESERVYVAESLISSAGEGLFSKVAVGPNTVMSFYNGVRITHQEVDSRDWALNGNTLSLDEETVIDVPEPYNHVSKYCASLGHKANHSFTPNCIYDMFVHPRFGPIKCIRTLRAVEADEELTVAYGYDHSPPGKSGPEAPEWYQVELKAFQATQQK

[7] = Cell viability assay (WST-8), H9c2; assay type: cell-based, rat; details: rat, H9c2 myoblast cells, control (0 μM) = 100
Procedure: (§1) A WST-8 (2-(2-methoxy-4-nitrophenyl)-3-(4-nitrophenyl)-5-(2,4-disulfophenyl)-2H-tetrazolium) assay using a Cell Counting Kit-8 (DOJINDO) was performed to measure cell viability using an EnSpire microplate reader (PerkinElmer).

[8] = tested on: rat myoblast cell line H9c2; test: Cell viability assay (WST-8), H9c2; assay type: cell-based; details: for cell viability in H9c2 cells: control (0 μM) = 100
Procedure: as §1

[9] = target: T5, GLP (Homo sapiens, UniProt Q9H9B1); test: biochemical
T5 sequence (Q9H9B1 1-1298): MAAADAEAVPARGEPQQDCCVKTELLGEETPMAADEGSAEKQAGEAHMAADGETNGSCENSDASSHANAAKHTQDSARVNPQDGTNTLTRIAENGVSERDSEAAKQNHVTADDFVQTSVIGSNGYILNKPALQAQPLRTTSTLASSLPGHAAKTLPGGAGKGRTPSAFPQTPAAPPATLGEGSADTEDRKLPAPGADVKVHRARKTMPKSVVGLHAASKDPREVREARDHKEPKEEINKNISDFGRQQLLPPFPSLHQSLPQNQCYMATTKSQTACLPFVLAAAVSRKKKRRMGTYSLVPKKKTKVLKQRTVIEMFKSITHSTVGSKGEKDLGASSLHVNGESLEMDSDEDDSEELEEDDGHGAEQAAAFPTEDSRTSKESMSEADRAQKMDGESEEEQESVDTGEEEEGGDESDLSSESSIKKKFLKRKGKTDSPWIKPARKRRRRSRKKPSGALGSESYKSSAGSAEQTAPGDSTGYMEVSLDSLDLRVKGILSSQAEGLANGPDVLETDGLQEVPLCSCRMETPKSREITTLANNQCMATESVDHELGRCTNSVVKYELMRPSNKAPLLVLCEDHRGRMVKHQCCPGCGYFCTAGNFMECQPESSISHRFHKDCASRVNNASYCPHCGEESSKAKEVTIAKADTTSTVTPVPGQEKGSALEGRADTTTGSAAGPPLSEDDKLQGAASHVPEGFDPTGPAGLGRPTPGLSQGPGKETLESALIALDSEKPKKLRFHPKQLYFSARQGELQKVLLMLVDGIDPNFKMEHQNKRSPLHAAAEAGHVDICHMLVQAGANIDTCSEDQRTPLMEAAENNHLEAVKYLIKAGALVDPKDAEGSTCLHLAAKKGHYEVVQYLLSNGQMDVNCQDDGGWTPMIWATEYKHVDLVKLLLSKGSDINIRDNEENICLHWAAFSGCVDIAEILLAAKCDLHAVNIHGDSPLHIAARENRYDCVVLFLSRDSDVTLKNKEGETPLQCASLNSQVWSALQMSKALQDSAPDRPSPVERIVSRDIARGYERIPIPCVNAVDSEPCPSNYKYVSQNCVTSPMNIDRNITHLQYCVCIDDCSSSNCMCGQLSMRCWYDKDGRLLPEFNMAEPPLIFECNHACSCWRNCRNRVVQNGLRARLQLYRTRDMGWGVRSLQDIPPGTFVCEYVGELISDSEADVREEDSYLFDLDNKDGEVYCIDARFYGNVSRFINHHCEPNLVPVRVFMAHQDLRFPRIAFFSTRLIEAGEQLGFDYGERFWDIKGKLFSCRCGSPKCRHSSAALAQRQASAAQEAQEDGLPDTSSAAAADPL

[10] = 50 μM, relative to DMSO = 1, replicate values
[11] = 100 μM, relative to DMSO = 1, replicate values
[12] = 200 μM, relative to DMSO = 1, replicate values
[13] = 0.01 μM, relative to DMSO = 1, replicate values

Row | Structure (SMILES) | BGLT3 expression ([1]; HUDEP-2) | expression of BCL11A and ZBTB7A [2] | IC50 ([4]; MLL1, 1 μM SAM) [µM] | IC50 ([4]; MLL1, RK-701 in duplicate) [µM] | IC50 ([5]; 1 μM SAM) [µM] | IC50 ([5]; RK-701 in duplicate) | IC50 ([6]; SET7/9, 1 μM SAM) [µM] | IC50 ([6]; SET7/9, RK-701 in duplicate) [µM] | viability at 0.039 μM [7] [%] | viability at 0.156 μM [7] [%] | cell viability in H9c2 cells ([8]; 0.039 μM) | cell viability in H9c2 cells ([8]; 0.156 μM) | cell viability in H9c2 cells ([8]; 0.625 μM) | cell viability in H9c2 cells ([8]; 2.5 μM) | cell viability in H9c2 cells ([8]; 10.0 μM) | IC50 [9] | other results
1 | NC(=O)NO [Hydroxyurea, hydroxyurea] | promoted BGLT3 expression | did not significantly affect | – | – | – | – | – | – | – | – | – | – | – | – | – | – | BGLT3 expression in HUDEP-2 cells treated with hydroxyurea [1, 10]: 1.625 and 1.206 and 1.616; BGLT3 expression in HUDEP-2 cells treated with hydroxyurea [1, 11]: 1.87 and 1.919 and 2.091; BGLT3 expression in HUDEP-2 cells treated with hydroxyurea [1, 12]: 2.757 and 2.815 and 4.093; BGLT3 expression ([1]; Left panel, Parental HUDEP-2 cells treated with hydroxyurea, Parental DMSO = 1, 3 replicates): 2.685 and 2.462 and 3.265; BGLT3 expression ([1]; Right panel, Parental HUDEP-2 cells treated with hydroxyurea, DMSO of the same cells = 1, 3 replicates): 2.685 and 2.462 and 3.265; BCL11A expression in HUDEP-2 cells treated with hydroxyurea [2, 10]: 1.149 and 0.8339 and 1.127; ZBTB7A expression in HUDEP-2 cells treated with hydroxyurea [2, 10]: 1.5773 and 1.182 and 1.627; BCL11A expression in HUDEP-2 cells treated with hydroxyurea [2, 11]: 1.406 and 0.8316 and 1.105; ZBTB7A expression in HUDEP-2 cells treated with hydroxyurea [2, 11]: 3.378 and 1.925 and 2.126; BCL11A expression in HUDEP-2 cells treated with hydroxyurea [2, 12]: 0.9537 and 0.8461 and 1.024; ZBTB7A expression in HUDEP-2 cells treated with hydroxyurea [2, 12]: 5.802 and 2.404 and 2.049
2 | Cc1c(C(=O)NC(CCC2CC2)C(=O)Nc2ccc(C#N)cc2)[nH]c2c1C(=O)CC(C)(C)C2 (stereo not shown) [RK-701] | induced BGLT3 expression | did not significantly affect | > 100 | > 100 | 48.6 | 47.6 µM and 49.6 µM | > 100 | > 100 | 101 | 95.6 | 91.465 and 104.927 | 91.465 and 106.022 | 97.754 and 88.280 and 116.423 | 95.509 and 92.994 and 114.051 | 145.310 and 89.427 and 118.431 | 0.0486 µM and 0.0577 µM | IC50 ([3]; DNMT3a, 1 μM SAM, read-out: IC50): > 100 µM; IC50 ([3]; DNMT3a, RK-701 in duplicate, read-out: IC50): > 100 µM; BGLT3 expression ([1]; parental HUDEP-2 cells treated with RK-701, parental DMSO = 1, replicates 1a-3b): 3.454 and 1.802 and 1.321 and 3.995 and 3.605 and 4.281; BGLT3 expression in HUDEP-2 cells treated with RK-701 and decitabine ([1]; single agents or combination, relative to DMSO = 1, replicate values): 2.098 and 1.983 and 1.578; BCL11A expression in HUDEP-2 cells [2, 13]: 0.7709 and 1.287 and 1.333; ZBTB7A expression in HUDEP-2 cells [2, 13]: 0.7642 and 1.54 and 1.588; cytotoxic effect on viability ([8]; H9c2, 5 days): essentially no cytotoxic effect
3 | Cc1c(C(=O)N[C@H](CCC2CC2)C(=O)Nc2ccc(C#N)cc2)[nH]c2c1C(=O)CC(C)(C)C2 [RK-0133114] | – | – | – | – | – | – | – | – | 89.5 | 100 | 95.980 and 104.160 | 93.342 and 91.200 | 99.497 and 102.560 | 93.970 and 103.040 | 89.573 and 98.080 | – | viability at 0.625 μM ([7]; 0.625 μM): 116%; viability at 2.5 μM ([7]; 2.5 μM): 85.5%; viability at 10 μM ([7]; 10.0 μM): 106%
4 | Nc1ncnc2c1ncn2[C@@H]1O[C@H](CSCC[C@H](N)C(=O)O)[C@@H](O)[C@H]1O [SAH, S-(5'-Adenosyl)-L-homocysteine, reference compound] | – | – | 1.3 | 1.31 | 5.3 | 5.3 µM | 81.8 | 81.8 | – | – | – | – | – | – | – | 3.86 µM | IC50 ([3]; IC50, DNMT3a, 1 μM SAM): 0.3 µM; IC50 ([3]; IC50, DNMT3a, RK-701 in duplicate): 0.3 µM
